pIC50: −log10 of the molar value.
Target: PD-L1 His protein / PD-1 Fc protein (Homo sapiens, UniProt Q9NZQ7)
Test: HTRF Assay (PD-1/PD-L1 interaction)
Type: binding
Settings: PD-L1 His 6 nM, PD-1 Fc 6 nM
How it was run: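 HTRF: PD-L1 His (6 nM final), compound (3-fold dilutions, 20 μM to 0.001 μM final) and PD-1 Fc (6 nM final) preincubated 15 min at room temperature. Anti-human IgG-XL665 and anti-6HIS Tb cryptate (mixed at 6.7 nM and 0.35 nM) then added for 1 h at room temperature before reading.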

PD-L1 His protein / PD-1 Fc protein, sequence (Q9NZQ7 19-238 limits assumed): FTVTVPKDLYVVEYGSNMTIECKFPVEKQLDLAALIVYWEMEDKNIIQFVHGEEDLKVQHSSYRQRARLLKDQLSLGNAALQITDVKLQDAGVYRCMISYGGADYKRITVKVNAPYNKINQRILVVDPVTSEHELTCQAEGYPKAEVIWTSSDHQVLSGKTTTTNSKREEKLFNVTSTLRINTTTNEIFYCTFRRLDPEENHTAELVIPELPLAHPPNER

Q: `O=C1CC[C@@H](CNCc2ccc(-c3cccc(-c4cccc(-c5ccn6c(=O)c(CNC[C@@H]7CCC(=O)N7)cnc6c5)c4Cl)c3Cl)cc2OC(F)F)N1` [Example 110, 8-(2,2′-Dichloro-3″-(difluoromethoxy)-4″-(((((S)-5-oxopyrrolidin-2-yl)methyl)amino)methyl)-[1,1′:3′,1″-terphenyl]-3-yl)-3-(((((S)-5-oxopyrrolidin-2-yl)methyl)amino)methyl)-4H-pyrido[1,2-a]pyrimidin-4-one] was tested. Which pIC50 did it give?
A: Its pIC50 is 8.62.

Q: How did the pIC50 turn out when `COc1nc(-c2cccc(-c3cccc(-c4ccn5c(=O)c(CNC[C@@H]6CCC(=O)N6)cnc5c4)c3Cl)c2Cl)ccc1CN[C@H]1CCOC[C@@H]1O` [Example 174, 8-(2,2′-Dichloro-3′-(5-((((3R,4S)-3-hydroxytetrahydro-2H-pyran-4-yl)amino)methyl)-6-methoxypyridin-2-yl)-[1,1′-biphenyl]-3-yl)-3-(((((S)-5-oxopyrrolidin-2-yl)methyl)amino)methyl)-4H-pyrido[1,2-a]pyrimidin-4-one] was run?
A: Its pIC50 is 9.10.

Q: With `COc1nc(-c2cccc(-c3cccc(-c4ccn5c(=O)c(C6=NCCC(C(=O)O)N6)cnc5c4)c3Cl)c2Cl)ccc1CNC[C@@H]1CCC(=O)N1` (mixture of isomers) [Example 199, 2-(8-(2,2′-Dichloro-3′-(6-methoxy-5-(((((S)-5-oxopyrrolidin-2-yl)methyl)amino)methyl)pyridin-2-yl)-[1,1′-biphenyl]-3-yl)-4-oxo-4H-pyrido[1,2-a]pyrimidin-3-yl)-3,4,5,6-tetrahydropyrimidine-4-carboxylic acid] as the compound, how does the pIC50 read?
A: The pIC50 was 10.00.

Q: With `COc1nc(-c2cccc(-c3cccc(-c4ccn5c(=O)c(CN6CC[C@H](O)C6)cnc5c4)c3Cl)c2Cl)ccc1CN1CC[C@H](O)C1` [Example 165, 8-(2,2′-Dichloro-3′-(5-(((S)-3-hydroxypyrrolidin-1-yl)methyl)-6-methoxypyridin-2-yl)-[1,1′-biphenyl]-3-yl)-3-(((S)-3-hydroxypyrrolidin-1-yl)methyl)-4H-pyrido[1,2-a]pyrimidin-4-one] as the compound, how does the pIC50 read?
A: The pIC50 was 10.00.

Q: `COc1nc(-c2cccc(-c3cccc(-c4ccn5c(=O)c(CN6C[C@H](O)C[C@@H]6C(=O)O)cnc5c4)c3Cl)c2Cl)ccc1CNC[C@@H]1CCC(=O)N1` [Example 134, (2R,4R)-1-((8-(2,2′-Dichloro-3′-(6-methoxy-5-(((((S)-5-oxopyrrolidin-2-yl)methyl)amino)methyl)pyridin-2-yl)-[1,1′-biphenyl]-3-yl)-4-oxo-4H-pyrido[1,2-a]pyrimidin-3-yl)methyl)-4-hydroxypyrrolidine-2-carboxylic acid] was tested. Which pIC50 did it give?
A: The pIC50 was 8.96.

Q: How did the pIC50 turn out when `COc1nc(-c2cccc(-c3cccc(-c4ccn5c(=O)c(CNC[C@@H]6CCC(=O)N6)c(C)nc5c4)c3Cl)c2Cl)cc(F)c1CNC[C@@H]1CCC(=O)N1` [Example 404, 8-(2,2′-Dichloro-3′-(4-fluoro-6-methoxy-5-(((((S)-5-oxopyrrolidin-2-yl)methyl)amino)methyl)pyridin-2-yl)-[1,1′-biphenyl]-3-yl)-2-methyl-3-(((((S)-5-oxopyrrolidin-2-yl)methyl)amino)methyl)-4H-pyrido[1,2-a]pyrimidin-4-one] was run?
A: The pIC50 was 10.00.

Q: How did the pIC50 turn out when `COc1nc(-c2cccc(-c3cccc(-c4cc5c(=O)n(C)c(CNC6CC7(COC7)C6)nn5c4)c3Cl)c2Cl)ccc1CNC[C@@H]1CCC(=O)N1` [Example 446, 6-[2-Chloro-3-[2-chloro-3-[6-methoxy-5-[[[(2S)-5-oxopyrrolidin-2-yl]methylamino]methyl]-2-pyridyl]phenyl]phenyl]-3-methyl-2-[(2-oxaspiro[3.3]heptan-6-ylamino)methyl] pyrrolo[2,1-f][1,2,4]triazin-4-one] was run?
A: Its pIC50 is 6.80.

Q: With `COc1nc(-c2cccc(-c3cccc(-c4ccn5c(=O)c(CN6CC[C@H](C(=O)O)C6)cnc5c4)c3Cl)c2Cl)cnc1CN1CC(CO)C1` [Example 92, (S)-1-((8-(2,2′-Dichloro-3′-(5-((3-(hydroxymethyl)azetidin-1-yl)methyl)-6-methoxypyrazin-2-yl)-[1,1′-biphenyl]-3-yl)-4-oxo-4H-pyrido[1,2-a]pyrimidin-3-yl)methyl)pyrrolidine-3-carboxylic acid] as the compound, how does the pIC50 read?
A: Its pIC50 is 9.52.

Q: How did the pIC50 turn out when `O=C1CC[C@@H](CNCc2ccc(-c3cccc(-c4cccc(-c5ccn6c(=O)c(CNC[C@@H]7CCC(=O)N7)cnc6c5)c4Cl)c3Cl)nc2OC2CC2)N1` [Example 109, 8-(2,2′-Dichloro-3′-(6-cyclopropoxy-5-(((((S)-5-oxopyrrolidin-2-yl)methyl)amino)methyl)pyridin-2-yl)-[1,1′-biphenyl]-3-yl)-3-(((((S)-5-oxopyrrolidin-2-yl)methyl)amino)methyl)-4H-pyrido[1,2-a]pyrimidin-4-one] was run?
A: The pIC50 was 8.85.

Q: With `COc1nc(-c2cccc(-c3cccc(-c4ccn5nc(CNC[C@@H]6CCC(=O)N6)cc5n4)c3Cl)c2Cl)ccc1CNC[C@@H]1CCC(=O)N1` [Example 82, (S)-5-((((6-(2,2′-Dichloro-3′-(2-(((((S)-5-oxopyrrolidin-2-yl)methyl)amino)methyl)pyrazolo[1,5-a]pyrimidin-5-yl)-[1,1′-biphenyl]-3-yl)-2-methoxypyridin-3-yl)methyl)amino)methyl)pyrrolidin-2-one] as the compound, how does the pIC50 read?
A: Its pIC50 is 8.00.

Q: How did the pIC50 turn out when `CCOc1nc(-c2cccc(-c3cccc(-c4ccn5c(=O)c(CNC[C@@H]6CCC(=O)N6)cnc5c4)c3C)c2Cl)ccc1CNC[C@@H]1CCC(=O)N1` [Example 72, 8-(2′-Chloro-3′-(6-ethoxy-5-(((((S)-5-oxopyrrolidin-2-yl)methyl)amino)methyl)pyridin-2-yl)-2-methyl-[1,1′-biphenyl]-3-yl)-3-(((((S)-5-oxopyrrolidin-2-yl)methyl)amino)methyl)-4H-pyrido[1,2-a]pyrimidin-4-one] was run?
A: Its pIC50 is 8.03.

Q: With `COc1nc(-c2cccc(-c3cccc(-c4ccn5c(=O)c(CN6CCC(CO)(CO)C6)cnc5c4)c3Cl)c2Cl)ccc1CNC[C@@H]1CCC(=O)N1` [Example 328, (S)-3-((3,3-Bis(hydroxymethyl)pyrrolidin-1-yl)methyl)-8-(2,2′-dichloro-3′-(6-methoxy-5-((((5-oxopyrrolidin-2-yl)methyl)amino)methyl)pyridin-2-yl)-[1,1′-biphenyl]-3-yl)-4H-pyrido[1,2-a]pyrimidin-4-one] as the compound, how does the pIC50 read?
A: The pIC50 was 10.00.

Q: How did the pIC50 turn out when `COc1nc(-c2cccc(-c3cccc(-c4ccn5c(=O)c(CNC[C@H](C)O)cnc5c4)c3Cl)c2Cl)ccc1CNC[C@H](C)O` [Example 185, 8-(2,2′-Dichloro-3′-(5-((((S)-2-hydroxypropyl)amino)methyl)-6-methoxypyridin-2-yl)-[1,1′-biphenyl]-3-yl)-3-((((S)-2-hydroxypropyl)amino)methyl)-4H-pyrido[1,2-a]pyrimidin-4-one] was run?
A: The pIC50 was 8.92.

Q: How did the pIC50 turn out when `COc1nc(-c2cccc(-c3cccc(-c4ccn5c(=O)c(CNC[C@H](C)O)cnc5c4)c3Cl)c2Cl)ccc1CNC[C@@H]1CCC(=O)N1` [Example 131, 8-(2,2′-dichloro-3′-(6-methoxy-5-(((((S)-5-oxopyrrolidin-2-yl)methyl)amino)methyl)pyridin-2-yl)-[1,1′-biphenyl]-3-yl)-3-((((S)-2-hydroxypropyl)amino)methyl)-4H-pyrido[1,2-a]pyrimidin-4-one] was run?
A: The pIC50 was 8.77.

Q: How did the pIC50 turn out when `CN1CCNCc2ccc(-c3cccc(-c4cccc(-c5ccn6c(=O)c(CNC[C@@H]7CCC(=O)N7)cnc6c5)c4Cl)c3Cl)cc21` [Example 410, (S)-8-(2,2′-Dichloro-3′-(1-methyl-2,3,4,5-tetrahydro-1H-benzo[e][1,4]diazepin-8-yl)-[1,1′-biphenyl]-3-yl)-3-((((5-oxopyrrolidin-2-yl)methyl)amino)methyl)-4H-pyrido[1,2-a]pyrimidin-4-one] was run?
A: Its pIC50 is 6.92.

Source: patent US20230143612A1 (Arbutus Biopharma Corporation, priority 2020, published 2023)
